Measurements published in ChEMBL document CHEMBL1687809, “Novel apramycin resistance gene apmA in bovine and porcine methicillin-resistant Staphylococcus aureus ST398 isolates” (2011).
Values after ≈ are worked out from the molar mass of the structure shown.

Legend:
Assay type in all cases: functional
[1] = system: Staphylococcus aureus; assay: Antimicrobial activity against methicillin-resistant Staphylococcus aureus ST398 isolate 11 containing apmA, erm(B), tet(L), tet(M), tet(K), dfrK, aadD, mecA, blaZ resistance genes by CLSI M31-A3 method
[2] = system: Staphylococcus aureus; assay: Antimicrobial activity against Staphylococcus aureus RN4220 by CLSI M31-A3 method
[3] = system: Staphylococcus aureus; assay: Antimicrobial activity against Staphylococcus aureus RN4220 carrying pAFS11-apmA, erm(B), tet(L), dfrK, aadD resistance genes by CLSI M31-A3 method

In the case of `CN[C@@H]1[C@@H](O[C@H]2O[C@H](CO)[C@@H](N)[C@H](O)[C@H]2O)OC2C[C@@H](N)[C@@H](O[C@H]3[C@H](O)[C@@H](O)[C@H](N)C[C@@H]3N)OC2[C@@H]1O` (some centres not stated) [APRAMYCIN], the MIC [1] is reported as ≥ 128 µg/mL, the MIC [2] is reported as 1 µg/mL (≈ 1.85 µM) and the MIC [3] is reported as ≥ 128 µg/mL.
With `CCC[C@@H]1C[C@@H](C(=O)N[C@@H]([C@H]2O[C@H](SC)[C@H](O)[C@@H](O)[C@H]2O)[C@H](C)Cl)N(C)C1` [CLINDAMYCIN] the MIC [1] was ≥ 128 µg/mL, the MIC [2] was ≤ 0.12 µg/mL and the MIC [3] was ≥ 128 µg/mL.
With `CC[C@H]1OC(=O)[C@H](C)[C@@H](O[C@H]2C[C@@](C)(OC)[C@@H](O)[C@H](C)O2)[C@H](C)[C@@H](O[C@@H]2O[C@H](C)C[C@H](N(C)C)[C@H]2O)[C@](C)(O)C[C@@H](C)C(=O)[C@H](C)[C@@H](O)[C@]1(C)O` [ERYTHROMYCIN] the MIC [1] was ≥ 64 µg/mL, the MIC [2] was 0.12 µg/mL (≈ 0.164 µM) and the MIC [3] was ≥ 64 µg/mL.
In the case of `NC[C@@H]1O[C@H](O[C@H]2[C@@H](O)[C@H](O[C@@H]3[C@@H](O)[C@H](N)C[C@H](N)[C@H]3O[C@H]3O[C@H](CN)[C@@H](O)[C@H](O)[C@H]3N)O[C@@H]2CO)[C@H](N)[C@@H](O)[C@@H]1O` [FRAMYCETIN], the MIC [1] is reported as 128 µg/mL (≈ 208 µM), the MIC [2] is reported as ≤ 1 µg/mL and the MIC [3] is reported as 32 µg/mL (≈ 52.1 µM).
For `NC[C@H]1O[C@H](O[C@H]2[C@H](O)[C@@H](O[C@H]3O[C@H](CO)[C@@H](O)[C@H](N)[C@H]3O)[C@H](N)C[C@@H]2N)[C@H](O)[C@@H](O)[C@@H]1O` [KANAMYCIN], the MIC [1] was ≥ 128 µg/mL, the MIC [2] was 4 µg/mL (≈ 8.26 µM) and the MIC [3] was 64 µg/mL (≈ 132 µM).
For `Cc1onc(-c2ccccc2)c1C(=O)N[C@@H]1C(=O)N2[C@@H]1SC(C)(C)[C@@H]2C(=O)O` [OXACILLIN], the MIC [1] was 16 µg/mL (≈ 39.9 µM), the MIC [2] was 0.12 µg/mL (≈ 0.299 µM) and the MIC [3] was 0.12 µg/mL (≈ 0.299 µM).
Work on `CN(C)[C@@H]1C(O)=C(C(N)=O)C(=O)[C@@]2(O)C(O)=C3C(=O)c4c(O)cccc4[C@@](C)(O)[C@H]3C[C@@H]12` [TETRACYCLINE] yielded an MIC [1] of 64 µg/mL (≈ 144 µM), an MIC [2] of 0.12 µg/mL (≈ 0.27 µM) and an MIC [3] of 32 µg/mL (≈ 72 µM).
With `COc1cc(Cc2cnc(N)nc2N)cc(OC)c1OC` [TRIMETHOPRIM] the MIC [1] was ≥ 256 µg/mL, the MIC [2] was 0.5 µg/mL (≈ 1.72 µM) and the MIC [3] was ≥ 256 µg/mL.
Work on GENTAMICIN yielded an MIC [1] of 8 µg/mL, an MIC [2] of 0.25 µg/mL and an MIC [3] of 8 µg/mL.
